13 compounds from ChEMBL document CHEMBL1201862, “PubChem BioAssay data set” (2004) can be followed below.

Assay [1] is described as follows: cells.
Assay [2] addresses T1, Oxysterols receptor LXR-beta (Homo sapiens, UniProt P55055).
T1 sequence (P55055 whole entry): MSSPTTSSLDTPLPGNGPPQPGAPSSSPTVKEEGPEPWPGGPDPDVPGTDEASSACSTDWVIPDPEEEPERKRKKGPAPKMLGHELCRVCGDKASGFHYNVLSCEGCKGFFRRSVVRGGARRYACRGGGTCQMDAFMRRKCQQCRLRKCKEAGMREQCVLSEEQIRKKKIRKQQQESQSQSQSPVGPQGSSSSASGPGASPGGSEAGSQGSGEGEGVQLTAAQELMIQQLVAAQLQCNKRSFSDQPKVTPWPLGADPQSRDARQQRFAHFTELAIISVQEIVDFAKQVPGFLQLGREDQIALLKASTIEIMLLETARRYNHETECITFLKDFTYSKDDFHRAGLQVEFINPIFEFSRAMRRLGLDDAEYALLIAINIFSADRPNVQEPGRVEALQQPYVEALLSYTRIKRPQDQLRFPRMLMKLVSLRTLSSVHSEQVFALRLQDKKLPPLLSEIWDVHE
The class given is functional, cell-based.

Assay [3] is described as follows: cells. The assay is classed as functional, cell-based. As to conditions: HEK-CNG.
In assay [4] the target is T2, Galanin receptor type 3 (Homo sapiens, UniProt O60755).
T2 sequence (O60755 whole entry): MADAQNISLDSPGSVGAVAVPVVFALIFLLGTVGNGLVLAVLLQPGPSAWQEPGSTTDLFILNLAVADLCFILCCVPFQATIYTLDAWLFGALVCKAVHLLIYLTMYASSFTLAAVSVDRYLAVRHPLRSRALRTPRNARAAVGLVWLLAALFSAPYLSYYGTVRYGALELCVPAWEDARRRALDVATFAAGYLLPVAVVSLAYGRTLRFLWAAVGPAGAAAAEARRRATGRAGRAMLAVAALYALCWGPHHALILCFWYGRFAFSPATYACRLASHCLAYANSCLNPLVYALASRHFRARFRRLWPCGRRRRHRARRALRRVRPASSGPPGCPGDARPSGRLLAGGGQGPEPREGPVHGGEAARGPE
Description: Fluorescence-based cell-based primary high throughput dose response assay to identify antagonists of the Galanin Receptor 3 (GalR3). The assay is classed as functional.

In assay [5] the target is T3, Long-chain-fatty-acid--AMP ligase FadD28 (Mycobacterium tuberculosis, UniProt P9WQ59).
T3 sequence (P9WQ59 whole entry): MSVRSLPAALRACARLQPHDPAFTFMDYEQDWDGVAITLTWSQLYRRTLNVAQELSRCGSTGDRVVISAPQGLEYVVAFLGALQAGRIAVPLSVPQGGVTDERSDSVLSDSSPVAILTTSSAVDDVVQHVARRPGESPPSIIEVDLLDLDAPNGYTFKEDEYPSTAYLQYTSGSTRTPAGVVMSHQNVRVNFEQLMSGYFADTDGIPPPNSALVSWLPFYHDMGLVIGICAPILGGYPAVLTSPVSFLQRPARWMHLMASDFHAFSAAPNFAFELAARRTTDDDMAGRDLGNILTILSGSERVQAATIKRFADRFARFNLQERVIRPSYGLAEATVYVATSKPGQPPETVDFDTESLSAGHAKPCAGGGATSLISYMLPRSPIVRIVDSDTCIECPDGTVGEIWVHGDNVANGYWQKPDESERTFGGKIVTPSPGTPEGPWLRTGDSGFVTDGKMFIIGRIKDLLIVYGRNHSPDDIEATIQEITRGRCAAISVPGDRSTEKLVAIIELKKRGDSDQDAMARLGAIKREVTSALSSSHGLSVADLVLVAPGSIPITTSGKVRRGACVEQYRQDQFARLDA
Description: Fluorescence polarization aasay to screen for inhibitors that compete for the binding of FadD28 to a bisubstrate Measured in Biochemical System Using Plate Reader - 2147-01_Inhibitor_Dose_CherryPick_Activity. The assay is classed as functional, Mycobacterium tuberculosis H37Rv. A general note: In fluorescence polarisation assays a small probe gives low polarisation when free and higher when bound to something large.

Assay [6] deals with T4, Calpain-2 catalytic subunit (Sus scrofa, UniProt P43367).
T4 sequence (P43367 whole entry): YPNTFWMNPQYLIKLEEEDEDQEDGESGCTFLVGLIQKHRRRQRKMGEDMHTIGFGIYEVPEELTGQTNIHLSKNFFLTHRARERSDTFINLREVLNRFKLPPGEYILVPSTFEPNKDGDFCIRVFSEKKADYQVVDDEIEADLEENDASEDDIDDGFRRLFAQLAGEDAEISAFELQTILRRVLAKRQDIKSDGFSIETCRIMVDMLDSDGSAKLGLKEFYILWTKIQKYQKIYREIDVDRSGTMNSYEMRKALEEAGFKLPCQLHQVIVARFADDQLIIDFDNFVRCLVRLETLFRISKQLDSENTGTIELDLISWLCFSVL
Description: pig calpain II inhibitor potency, dose response, biochemical, fluorogenic peptide substrate (AID 1420). The class given is functional.

Assay [7] addresses T5, Histone-lysine N-methyltransferase NSD2 (Homo sapiens, UniProt O96028).
T5 sequence (O96028 whole entry): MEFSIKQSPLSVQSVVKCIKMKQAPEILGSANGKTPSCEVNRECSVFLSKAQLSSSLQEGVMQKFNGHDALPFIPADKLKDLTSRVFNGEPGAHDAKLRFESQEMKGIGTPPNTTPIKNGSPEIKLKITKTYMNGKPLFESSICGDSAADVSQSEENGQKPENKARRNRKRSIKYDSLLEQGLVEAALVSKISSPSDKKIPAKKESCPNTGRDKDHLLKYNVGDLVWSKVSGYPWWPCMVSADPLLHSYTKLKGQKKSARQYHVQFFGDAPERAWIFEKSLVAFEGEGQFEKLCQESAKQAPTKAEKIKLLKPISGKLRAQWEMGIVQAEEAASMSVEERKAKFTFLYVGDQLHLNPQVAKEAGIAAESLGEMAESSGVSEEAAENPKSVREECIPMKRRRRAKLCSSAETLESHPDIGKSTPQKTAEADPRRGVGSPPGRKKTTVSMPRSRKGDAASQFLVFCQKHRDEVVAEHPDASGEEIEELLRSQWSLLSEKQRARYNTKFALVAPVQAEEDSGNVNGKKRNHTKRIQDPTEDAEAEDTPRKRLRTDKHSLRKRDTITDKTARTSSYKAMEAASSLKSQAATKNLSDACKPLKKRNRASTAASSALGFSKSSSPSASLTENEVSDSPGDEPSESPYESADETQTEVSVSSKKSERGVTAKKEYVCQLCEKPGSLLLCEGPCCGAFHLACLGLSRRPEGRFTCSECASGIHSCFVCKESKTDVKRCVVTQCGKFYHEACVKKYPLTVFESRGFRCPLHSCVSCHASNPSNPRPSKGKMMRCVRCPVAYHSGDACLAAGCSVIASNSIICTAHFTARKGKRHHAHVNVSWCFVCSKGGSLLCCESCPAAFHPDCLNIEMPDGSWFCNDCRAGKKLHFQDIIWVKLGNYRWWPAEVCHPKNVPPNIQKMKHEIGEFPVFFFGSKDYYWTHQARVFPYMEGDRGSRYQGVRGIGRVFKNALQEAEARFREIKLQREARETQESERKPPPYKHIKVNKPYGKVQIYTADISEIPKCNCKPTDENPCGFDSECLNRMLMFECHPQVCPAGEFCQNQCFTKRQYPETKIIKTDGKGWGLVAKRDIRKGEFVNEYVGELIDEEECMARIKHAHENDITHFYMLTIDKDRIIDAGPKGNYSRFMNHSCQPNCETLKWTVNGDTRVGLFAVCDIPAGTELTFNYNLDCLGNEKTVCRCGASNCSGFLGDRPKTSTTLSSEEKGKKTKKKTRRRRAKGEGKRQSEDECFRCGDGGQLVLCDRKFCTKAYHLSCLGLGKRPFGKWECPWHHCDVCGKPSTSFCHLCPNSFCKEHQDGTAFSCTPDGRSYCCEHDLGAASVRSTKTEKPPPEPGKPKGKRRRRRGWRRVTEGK
The class given is biochemical.

Assay [8] addresses T6, Heat shock factor protein 1 (Mus musculus, UniProt P38532).
T6 sequence (P38532 whole entry): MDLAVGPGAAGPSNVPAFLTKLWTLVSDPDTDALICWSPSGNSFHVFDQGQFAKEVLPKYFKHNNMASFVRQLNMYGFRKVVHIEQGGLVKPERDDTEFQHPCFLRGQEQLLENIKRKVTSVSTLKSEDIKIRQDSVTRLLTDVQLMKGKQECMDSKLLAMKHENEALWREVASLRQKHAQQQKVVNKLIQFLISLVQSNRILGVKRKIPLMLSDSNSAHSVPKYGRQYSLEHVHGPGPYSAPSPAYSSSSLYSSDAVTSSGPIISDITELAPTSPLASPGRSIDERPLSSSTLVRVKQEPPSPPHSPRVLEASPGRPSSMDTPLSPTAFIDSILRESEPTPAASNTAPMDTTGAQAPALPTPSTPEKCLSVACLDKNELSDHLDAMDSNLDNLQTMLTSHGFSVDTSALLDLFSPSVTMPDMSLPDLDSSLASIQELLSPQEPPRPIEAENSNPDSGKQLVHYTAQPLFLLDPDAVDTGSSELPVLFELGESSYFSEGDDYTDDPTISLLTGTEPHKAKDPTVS
Description: HSF1 potentiators in luciferase reporter cells, confirmation, cell-based, NIH3T3, luminescence, dose retest (AID 435004).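 Note: stress induced by proteasome inhibitor MG132 added 30 min after compound; luciferase reporter driven by HSF1 response element in NIH3T3 cells; actives raise luminescence as potentiators of the MG132 stress response.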 The assay is classed as functional. (In general: In a reporter assay the amount or activity of a reporter protein is the signal.)

For assay [9], the target named is T7, DNA repair protein RAD52 homolog (Homo sapiens, UniProt P43351).
T7 sequence (P43351 whole entry): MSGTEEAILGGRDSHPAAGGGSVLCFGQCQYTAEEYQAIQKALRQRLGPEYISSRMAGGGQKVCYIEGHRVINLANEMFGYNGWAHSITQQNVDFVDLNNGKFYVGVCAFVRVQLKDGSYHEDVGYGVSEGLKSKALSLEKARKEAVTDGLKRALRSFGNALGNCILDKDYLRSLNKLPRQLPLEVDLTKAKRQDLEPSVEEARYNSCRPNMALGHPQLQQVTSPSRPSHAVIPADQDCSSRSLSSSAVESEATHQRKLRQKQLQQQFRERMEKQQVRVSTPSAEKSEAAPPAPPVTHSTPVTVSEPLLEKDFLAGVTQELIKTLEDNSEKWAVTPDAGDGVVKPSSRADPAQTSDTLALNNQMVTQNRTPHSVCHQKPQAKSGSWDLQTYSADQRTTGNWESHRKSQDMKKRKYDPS
The class given is functional, biochemical.

The target in assay [10] is T8, Fatty acid synthase (Homo sapiens, UniProt P49327). Description: FAS thioesterase domain inhibitors, dose response, biochemical, endpoint fluorescence intensity, uHTS hits (AID 624327).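 Note: fluorescence from hydrolysis of an O-methyl fluorescein acyl ester substrate by the enzyme.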 The assay is classed as functional.
Assay [11] has as its target T8, Fatty acid synthase. Nature of the assay: FAS thioesterase domain inhibitors, dose response, biochemical, kinetic fluorescence intensity (AID 624326).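 Note: rate of fluorescence rise from hydrolysis of a fluorogenic O-methyl fluorescein ester substrate.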 The class given is functional.
The target in assay [12] is Paired box protein Pax-8 (Homo sapiens, UniProt Q06710). Description: inhibitors of PAX8-driven TPO luciferase reporter, dose response, RMG-I cells, cherry-pick (AID 687027).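 Note: luciferase reporter driven by Pax8 target thyroperoxidase promoter measured by SteadyGlo luminescence.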 The class given is functional, cell-based.

Each structure is given as a SMILES string. Calls of active or inactive are those of the source.

T8 sequence (P49327 whole entry, the tested form may be a part): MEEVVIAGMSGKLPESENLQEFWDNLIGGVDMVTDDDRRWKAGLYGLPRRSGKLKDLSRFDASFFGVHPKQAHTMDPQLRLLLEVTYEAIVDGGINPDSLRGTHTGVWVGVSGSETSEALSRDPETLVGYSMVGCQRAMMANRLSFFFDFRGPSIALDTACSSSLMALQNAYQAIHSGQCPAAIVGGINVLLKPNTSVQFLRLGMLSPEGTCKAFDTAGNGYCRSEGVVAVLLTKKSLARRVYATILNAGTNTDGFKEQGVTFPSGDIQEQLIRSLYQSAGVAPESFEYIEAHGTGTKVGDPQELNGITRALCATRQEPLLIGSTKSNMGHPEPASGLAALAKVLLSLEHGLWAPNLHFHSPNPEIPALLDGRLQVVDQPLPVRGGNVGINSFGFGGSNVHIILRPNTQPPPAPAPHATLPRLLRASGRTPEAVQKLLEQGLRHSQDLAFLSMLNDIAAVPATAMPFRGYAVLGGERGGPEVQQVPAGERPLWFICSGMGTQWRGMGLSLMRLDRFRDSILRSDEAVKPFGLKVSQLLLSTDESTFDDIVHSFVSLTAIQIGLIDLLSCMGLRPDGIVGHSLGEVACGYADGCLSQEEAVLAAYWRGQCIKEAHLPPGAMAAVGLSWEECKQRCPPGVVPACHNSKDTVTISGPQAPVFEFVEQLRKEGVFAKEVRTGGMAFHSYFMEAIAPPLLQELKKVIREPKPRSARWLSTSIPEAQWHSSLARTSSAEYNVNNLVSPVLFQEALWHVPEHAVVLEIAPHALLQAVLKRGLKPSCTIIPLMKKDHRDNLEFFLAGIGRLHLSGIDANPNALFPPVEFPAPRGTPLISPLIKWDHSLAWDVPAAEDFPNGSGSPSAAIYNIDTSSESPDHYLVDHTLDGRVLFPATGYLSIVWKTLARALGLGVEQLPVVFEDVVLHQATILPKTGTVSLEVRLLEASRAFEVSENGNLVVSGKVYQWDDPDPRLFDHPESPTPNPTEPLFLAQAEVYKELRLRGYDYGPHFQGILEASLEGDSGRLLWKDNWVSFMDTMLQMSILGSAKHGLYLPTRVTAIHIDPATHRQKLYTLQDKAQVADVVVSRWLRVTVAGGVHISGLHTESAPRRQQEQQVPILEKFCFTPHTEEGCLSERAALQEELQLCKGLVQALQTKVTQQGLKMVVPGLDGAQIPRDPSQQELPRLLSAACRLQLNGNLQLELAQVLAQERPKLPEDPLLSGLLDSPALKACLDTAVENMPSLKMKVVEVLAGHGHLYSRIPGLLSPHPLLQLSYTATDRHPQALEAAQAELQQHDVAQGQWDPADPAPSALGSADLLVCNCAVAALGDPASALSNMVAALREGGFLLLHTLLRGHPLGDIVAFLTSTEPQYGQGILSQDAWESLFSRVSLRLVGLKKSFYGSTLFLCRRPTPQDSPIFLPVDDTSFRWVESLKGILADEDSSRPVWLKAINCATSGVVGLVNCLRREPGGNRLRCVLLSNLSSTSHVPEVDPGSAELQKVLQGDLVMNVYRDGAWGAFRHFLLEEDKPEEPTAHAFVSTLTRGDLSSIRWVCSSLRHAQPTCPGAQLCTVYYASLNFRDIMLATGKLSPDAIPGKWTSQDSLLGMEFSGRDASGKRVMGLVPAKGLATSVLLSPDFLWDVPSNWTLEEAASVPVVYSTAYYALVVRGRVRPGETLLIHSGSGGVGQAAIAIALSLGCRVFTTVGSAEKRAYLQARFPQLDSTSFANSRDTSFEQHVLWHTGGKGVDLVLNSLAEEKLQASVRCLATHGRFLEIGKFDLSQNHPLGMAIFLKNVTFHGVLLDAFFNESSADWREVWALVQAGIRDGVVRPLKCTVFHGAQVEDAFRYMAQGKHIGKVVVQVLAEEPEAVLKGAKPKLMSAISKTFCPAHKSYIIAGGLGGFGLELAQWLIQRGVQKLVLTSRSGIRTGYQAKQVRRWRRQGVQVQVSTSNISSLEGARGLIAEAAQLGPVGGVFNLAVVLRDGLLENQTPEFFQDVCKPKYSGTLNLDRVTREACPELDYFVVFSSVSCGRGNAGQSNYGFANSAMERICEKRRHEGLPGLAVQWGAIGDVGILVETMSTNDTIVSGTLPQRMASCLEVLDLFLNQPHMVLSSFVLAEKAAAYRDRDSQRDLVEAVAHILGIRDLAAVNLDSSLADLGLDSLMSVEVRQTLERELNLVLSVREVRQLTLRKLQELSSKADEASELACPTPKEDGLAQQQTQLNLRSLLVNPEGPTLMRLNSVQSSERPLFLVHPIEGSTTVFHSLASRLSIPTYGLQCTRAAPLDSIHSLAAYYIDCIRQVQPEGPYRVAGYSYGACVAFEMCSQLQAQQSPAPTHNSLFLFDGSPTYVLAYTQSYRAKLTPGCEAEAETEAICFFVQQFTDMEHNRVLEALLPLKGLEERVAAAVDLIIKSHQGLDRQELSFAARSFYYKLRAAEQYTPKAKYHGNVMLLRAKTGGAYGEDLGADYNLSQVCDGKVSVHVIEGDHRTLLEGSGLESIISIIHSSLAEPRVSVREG
Paired box protein Pax-8, sequence (Q06710 whole entry): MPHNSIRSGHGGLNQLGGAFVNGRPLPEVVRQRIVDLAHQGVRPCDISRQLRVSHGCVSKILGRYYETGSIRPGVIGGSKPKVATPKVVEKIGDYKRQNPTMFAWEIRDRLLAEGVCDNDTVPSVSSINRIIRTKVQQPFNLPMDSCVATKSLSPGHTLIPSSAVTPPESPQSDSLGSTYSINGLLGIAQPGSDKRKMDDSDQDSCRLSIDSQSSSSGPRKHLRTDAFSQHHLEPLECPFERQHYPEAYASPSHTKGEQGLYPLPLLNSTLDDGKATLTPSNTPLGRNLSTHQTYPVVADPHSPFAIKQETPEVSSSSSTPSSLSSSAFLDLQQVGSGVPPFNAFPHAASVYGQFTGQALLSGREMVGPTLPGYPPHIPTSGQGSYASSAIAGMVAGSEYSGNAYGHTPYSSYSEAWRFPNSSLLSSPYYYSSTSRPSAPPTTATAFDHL

The term EC50 denotes the concentration at which the effect is half-maximal. For the compound `c1ccc2c(c1)COc1c3cc4c(cc3nn1-2)OCO4`, the EC50 in assay [1] and in assay [2] was > 67.6 µM (inactive) throughout.
As usually defined, the IC50 is the point on the concentration scale where inhibition reaches its midpoint. Regarding `FC(F)(F)c1cccc(/C=N/NC(=S)NC2CCCCC2)c1`, in [3], the EC50 is > 29.9 µM (inactive). Besides, in assay [4], the IC50 was 3.19 µM (active).
The term AC50 denotes the concentration giving half of the maximal activity seen. Turning to `C/C(=N\Nc1ccc(Cl)c(C(=O)O)c1)c1ccc(Br)s1`, in [5], the AC50 was > 100 µM (inactive).
As for `c1ccc(-c2csc(Nc3ccc4c(c3)OCO4)n2)cc1`, the EC50 in assay [1] and in [2] was > 67.6 µM (inactive) in each case.
With `O=C(CC(=O)Nc1ccccc1[N+](=O)[O-])Nc1ccccc1[N+](=O)[O-]`, in [5], the AC50 was 32 µM (inactive).
In the case of `O=C1c2cccc(Sc3ccccc3)c2C(=O)c2c(Sc3ccccc3)cccc21`, in [6], the IC50 was 6.16 µM (not active). Besides, the AC50 in assay [7] was 5.27 µM (active).
Consider `Nc1nn(-c2cccc(F)n2)cc1-c1ccc(Cl)cc1`, for which the EC50 in assay [8] was > 260 µM (inconclusive); in [1], > 67.6 µM (inactive); in assay [2], > 67.6 µM (inactive).
Regarding `CCOC(=O)Cn1nnnc1C(C(C)C)N(Cc1cccs1)Cc1cc2cc(C)ccc2nc1O` (stereo unspecified), the EC50 in assay [3] was > 29.9 µM (inactive). Further, the IC50 in [4] was > 29.9 µM (inactive).
Take `CN1CCN(c2ccc(NC(=O)c3cc(S(N)(=O)=O)ccc3N3CCOCC3)cc2)CC1`: in assay [9], the AC50 was 8.83 µM (active).
`Cc1cccc(C)c1Cn1c(C)c(C(=O)NCc2ccc([N+](=O)[O-])cc2)sc1=O`: the IC50 in [10] is 6.75 µM (active); in assay [11] it was 4.48 µM (active). The AC50 in assay [5] was 20.5 µM (active).
Regarding `COc1c(C(=O)Nc2nnc(C3CC3)s2)csc1Cl`, the EC50 in assay [1] and in [2] was > 67.6 µM (inactive) in each case.
For the compound `C[C@H](NCCc1ccc(O)cc1)[C@H](O)c1ccc(O)cc1` [RITODRINE], in assay [3], the EC50 is > 29.9 µM (inactive). Besides, in [4], the IC50 was 0.932 µM (active).
Take `CC1OC(OC2C=C3CCC4C(CCC5(C)C(c6ccc(=O)oc6)CCC45O)C3(C)CC2)C(O)C(OC2OC(CO)C(O)C(O)C2O)C1O` (stereo unspecified): the EC50 in [3] is > 29.9 µM (inactive). Besides, the IC50 in assay [4] was > 29.9 µM (inactive). In assay [12], the AC50 was < 0.26 µM (active).
